Where “and” joins values, the source holds several entries; their conditions need not be identical. Equal values may be shown once.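 Following 48 hours of exposure in 96-well plates, responses at five concentrations were used to interpolate endpoints linearly. GI50 marks 50% less growth. TGI: concentration producing complete growth inhibition.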

Some test systems named below: MALME-3M melanoma; NCI-H23 lung; SF-268 CNS; EKVX NSCLC; LOX IMVI melanoma; IGROV1 ovarian; OVCAR-8 ovarian.
Assay in all cases: NCI anticancer screen, dose series, 48 h

Take `O=C(CSc1nc2ccc([N+](=O)[O-])cc2[nH]1)Nc1ccc([N+](=O)[O-])cc1`: the GI50 is 1.88 µM with MALME-3M melanoma; 2.14 µM in the assay with NCI-H23 lung; 2.72 µM in the assay on SF-268 CNS; 2.23 µM with EKVX NSCLC; 2.75 µM in the assay on LOX IMVI melanoma; 2.71 µM with IGROV1 ovarian. The GI50 with OVCAR-8 ovarian was 2.79 µM. In addition, the TGI with MALME-3M melanoma is 8.1 µM; with NCI-H23 lung, 9.51 µM; in the assay on SF-268 CNS, 14.5 µM; in the assay on EKVX NSCLC it was 10.8 µM; in the assay on LOX IMVI melanoma, 12.2 µM; in the assay on IGROV1 ovarian, 15.2 µM. The molecule further gave a TGI in the assay on OVCAR-8 ovarian of over 35.7 µM.
Turning to `O=C(NCCCNc1cc(-c2cn(-c3ccccc3)nc2-c2cccc(O)c2)ccn1)c1ccc(F)cc1`, the GI50 was 1.95 µM in the assay on MALME-3M melanoma; 2.81 µM in the assay on NCI-H23 lung; 2.99 µM in the assay on SF-268 CNS; 3.7 µM in the assay with EKVX NSCLC; 2.27 µM with LOX IMVI melanoma; 4.22 µM in the assay with IGROV1 ovarian. The GI50 with OVCAR-8 ovarian was 4.01 µM. The TGI with MALME-3M melanoma came out at 4.49 µM; in the assay with NCI-H23 lung, 14.8 µM; in the assay with SF-268 CNS it was 26.9 µM; in the assay on EKVX NSCLC it was 69.1 µM; with LOX IMVI melanoma it was 5.88 µM; in the assay with IGROV1 ovarian, 24.9 µM. In the assay on OVCAR-8 ovarian, the TGI turned out to be 21.2 µM.
For the molecule `ClCCN(CCCl)c1ccc(OCc2ccccc2)cc1`, the GI50 in the assay on MALME-3M melanoma was 10.2 µM; in the assay on NCI-H23 lung, 4.88 µM; in the assay with SF-268 CNS, 2.07 µM; in the assay on LOX IMVI melanoma, 3.13 µM; in the assay on IGROV1 ovarian, 7.03 µM; in the assay with OVCAR-8 ovarian, 3.3 µM. Further, the TGI with MALME-3M melanoma is 34.4 µM; in the assay on NCI-H23 lung, 36.6 µM; in the assay on SF-268 CNS, 22.5 µM; in the assay on LOX IMVI melanoma it was 17.4 µM; in the assay on IGROV1 ovarian, 64 µM; in the assay with OVCAR-8 ovarian it was 75.7 µM.
With `Nc1cc2c(c3ccccc13)C(CCl)CN2C(=O)c1cc2cc(NC(=O)c3cc4ccccc4o3)ccc2[nH]1` (stereo not given), the GI50 with MALME-3M melanoma, with LOX IMVI melanoma and in the assay on OVCAR-8 ovarian was over 0.11 µM throughout. In addition, the TGI with MALME-3M melanoma is 0.00771 µM and < 0.11 µM; in the assay on NCI-H23 lung it was 0.027 µM and 0.125 µM; in the assay on EKVX NSCLC, 0.43 µM; with LOX IMVI melanoma it was 256 µM; in the assay on OVCAR-8 ovarian it was 0.00407 µM and < 0.11 µM.
As to `O=C(NC(=S)Nc1ccc(-c2nc3ccccc3[nH]2)cc1)c1ccc2ccccc2c1`, the GI50 with MALME-3M melanoma was 2.14 µM; with NCI-H23 lung it was 17.8 µM; in the assay with SF-268 CNS, over 100 µM; in the assay with EKVX NSCLC it was 22.9 µM; in the assay with LOX IMVI melanoma, 2.14 µM; in the assay with IGROV1 ovarian, 7.66 µM. Also, in the assay on OVCAR-8 ovarian, the GI50 is 4.11 µM. Further, the TGI in the assay with MALME-3M melanoma is 5.54 µM; with NCI-H23 lung, over 100 µM; in the assay on SF-268 CNS it was over 100 µM; in the assay on EKVX NSCLC, over 100 µM; with LOX IMVI melanoma it was 4.74 µM; with IGROV1 ovarian it was over 100 µM. The molecule further showed a TGI with OVCAR-8 ovarian of over 100 µM.
On to `COc1ncnn2ccc(-c3cnc4nc(C)n(Cc5nnc(C(C)F)o5)c4c3)c12` (stereo not given), for which the GI50 was 0.264 µM in the assay with MALME-3M melanoma; 0.109 µM in the assay on NCI-H23 lung; 0.526 µM in the assay on SF-268 CNS; 0.272 µM with EKVX NSCLC; 0.144 µM in the assay with LOX IMVI melanoma; 0.235 µM in the assay with IGROV1 ovarian. Also, the GI50 with OVCAR-8 ovarian is 0.245 µM. Moreover, the TGI with MALME-3M melanoma was 0.75 µM; in the assay on NCI-H23 lung it was 0.597 µM; in the assay with SF-268 CNS, over 80.5 µM; with EKVX NSCLC, over 36.4 µM; in the assay with LOX IMVI melanoma, 0.619 µM; in the assay on IGROV1 ovarian it was over 64.3 µM. In addition, the TGI with OVCAR-8 ovarian is over 100 µM.
For the molecule `CC(C)[C@]12O[C@H]1[C@@H]1O[C@]13[C@]1(O[C@H]1C[C@H]1C4=C(CC[C@@]13C)C(=O)OC4)[C@@H]2OC(=O)OC(C)(C)C`, the GI50 was 0.0166 µM in the assay with MALME-3M melanoma; under 0.01 µM in the assay with NCI-H23 lung; 0.0251 µM in the assay on SF-268 CNS; 0.0573 µM in the assay on EKVX NSCLC; under 0.01 µM in the assay on LOX IMVI melanoma; 0.0164 µM with IGROV1 ovarian. The GI50 in the assay on OVCAR-8 ovarian is 0.0281 µM. Moreover, the TGI with MALME-3M melanoma is 0.0555 µM; in the assay with NCI-H23 lung, 0.0569 µM; with SF-268 CNS it was 0.26 µM; in the assay with EKVX NSCLC, over 100 µM; in the assay with LOX IMVI melanoma, over 100 µM; in the assay with OVCAR-8 ovarian it was over 100 µM.
For `COc1ccc(C(=O)O[C@@H]2CCN3CC[C@H](C)[C@H]23)cc1`, the TGI in the assay on NCI-H23 lung, in the assay with SF-268 CNS, with EKVX NSCLC, in the assay with LOX IMVI melanoma, in the assay with IGROV1 ovarian and in the assay on OVCAR-8 ovarian was over 100 µM in each case.
Regarding `CC12OC(C(=O)C13CC3)C1C(=O)c3cccc(O)c3C(=O)C12` (stereo not given), the GI50 in the assay on MALME-3M melanoma was 5.31 µM; in the assay with NCI-H23 lung, 7.55 µM; in the assay with SF-268 CNS, 6.08 µM; in the assay with EKVX NSCLC, 11.8 µM; in the assay with LOX IMVI melanoma, 5.1 µM; in the assay on IGROV1 ovarian, 12.2 µM. Moreover, in the assay on OVCAR-8 ovarian, the GI50 is 8.12 µM. Also, the TGI in the assay with MALME-3M melanoma was 14 µM; in the assay with NCI-H23 lung, 22.7 µM; in the assay with SF-268 CNS, over 68.5 µM; in the assay with EKVX NSCLC, 37.6 µM; in the assay with LOX IMVI melanoma, over 100 µM; in the assay with IGROV1 ovarian, over 100 µM. Moreover, the TGI in the assay on OVCAR-8 ovarian is over 38.5 µM.
As to `CCOC(=O)c1c2c(n(Cc3ccccc3)c1C)-c1nc[nH]c1C(=O)C2=O`, the GI50 in the assay on MALME-3M melanoma was 11.3 µM; in the assay with SF-268 CNS, 17.1 µM; in the assay with EKVX NSCLC, 17.8 µM; in the assay on LOX IMVI melanoma, 14.9 µM; with IGROV1 ovarian it was 16.7 µM; in the assay with OVCAR-8 ovarian it was 14.8 µM. Moreover, the TGI came to 23.9 µM with MALME-3M melanoma; 31.2 µM with SF-268 CNS; 32 µM with EKVX NSCLC; 28.1 µM in the assay with LOX IMVI melanoma; 30.6 µM in the assay with IGROV1 ovarian; 28 µM in the assay on OVCAR-8 ovarian.
`C#CCOCCCC(=O)O`: the TGI with NCI-H23 lung, with EKVX NSCLC, with LOX IMVI melanoma, with IGROV1 ovarian and in the assay with OVCAR-8 ovarian was over 100 µM in each case.
As to `COc1cc2cc(Oc3ccc(NC(=O)Nc4ccc(F)c(C(F)(F)F)c4)cc3)c(C)nc2cc1OCCN1CCOCC1`, the GI50 in the assay on MALME-3M melanoma was 1.57 µM; in the assay with NCI-H23 lung it was 1.43 µM; with SF-268 CNS it was 3.66 µM; in the assay with EKVX NSCLC, 2.53 µM; in the assay with LOX IMVI melanoma, 1.44 µM; in the assay with IGROV1 ovarian it was 2.69 µM. For the same molecule, the GI50 in the assay with OVCAR-8 ovarian is 2.73 µM. The TGI was found to be 3.24 µM in the assay on MALME-3M melanoma; 5.88 µM with NCI-H23 lung; 19.8 µM in the assay with SF-268 CNS; 20.7 µM with EKVX NSCLC; 2.86 µM in the assay with LOX IMVI melanoma; 19.5 µM in the assay on IGROV1 ovarian. In the assay on OVCAR-8 ovarian, the TGI is over 100 µM.

For the origin of these results see PubChem BioAssay (NCI).
